Reference: ChEMBL document CHEMBL3046770, “1-(6-Chloronicotinyl)-2-nitroimino-imidazolidines and Related Compounds as Potential New Insecticides” (Biosci Biotechnol Biochem, 1992)
Values after ≈ are worked out from the molar mass of the structure shown. Active and inactive are the calls of the source. The rule behind the calls is not given here.

Test system: not listed separately
Test: Toxicity in Leuciscus idus (golden orfe) after 96 hr
Type: organism-based
Settings: in vivo

Row | Compound | LC50 at 96 h [µg/mL]
1 | O=[N+]([O-])NC1=NCCN1Cc1ccc(Cl)nc1 [IMIDACLOPRID] | 237 (≈ 927 µM)

Test system: Lepidoptera
Test: Insecticidal activity against Lepidoptera
Type: functional, organism-based
Settings: not given

Row | Compound | Activity
2 | O=[N+]([O-])/N=C1\NCCN1Cc1ccc(Cl)nc1 [IMIDACLOPRID] | inactive

Test system: not listed separately
Test: Toxicity in po dosed Rattus norvegicus (rat)
Type: organism-based
Settings: in vivo

Row | Compound | LD50 [mg/kg]
3 | O=[N+]([O-])NC1=NCCN1Cc1ccc(Cl)nc1 [IMIDACLOPRID] | 450

Test system: not listed separately
Test: Toxicity in Rattus norvegicus (rat) […]
Type: organism-based
Settings: in vivo

Row | Compound | LD50 [mg/kg]
4 | O=[N+]([O-])NC1=NCCN1Cc1ccc(Cl)nc1 [IMIDACLOPRID] | > 5000

Test system: Nephotettix cincticeps
Test: Insecticidal activity against Nephotettix cincticeps (green rice leafhopper) infested on rice leaf assessed as increase in mortality at 1000 ppm after 5 days
Type: functional, organism-based
Settings: not given

Row | Compound | Activity
5 | CCOC(=O)/C=C1\NCCN1Cc1ccc(Cl)nc1 | inactive
6 | N#C/C=C1\NCCN1Cc1ccc(Cl)nc1 | inactive

Test system: Nephotettix cincticeps
Test: Insecticidal activity against Nephotettix cincticeps (green rice leafhopper) infested on rice leaf assessed as mortality after 5 days
Type: functional
Settings: not given

Row | Compound | LC90 [ppm]
7 | N=C1NCCN1Cc1ccc(Cl)nc1 [DESNITROIMIDACLOPRID] | 200
8 | CCCCN1CCN(Cc2ccc(Cl)nc2)/C1=N/[N+](=O)[O-] | 1.6
9 | CCN1CCN(Cc2ccc(Cl)nc2)/C1=N/[N+](=O)[O-] | 8
10 | C=CCN1CCN(Cc2ccc(Cl)nc2)/C1=N/[N+](=O)[O-] | 0.32
11 | O=[N+]([O-])/N=C1\NCCN1Cc1ccc(Cl)nc1 [IMIDACLOPRID] | 0.32
12 | O=[N+]([O-])/C=C1\NCCN1Cc1ccc(Cl)nc1 | 0.32
13 | C#CCN1CCN(Cc2ccc(Cl)nc2)/C1=N/[N+](=O)[O-] | 0.32
14 | CCCCCN1CCN(Cc2ccc(Cl)nc2)/C1=N/[N+](=O)[O-] | 40
15 | O=C1NCCN1Cc1ccc(Cl)nc1 | 1000
16 | CN1CCN(Cc2ccc(Cl)nc2)/C1=N/[N+](=O)[O-] | 1.6
17 | CC(=O)N1CCN(Cc2ccc(Cl)nc2)/C1=N/[N+](=O)[O-] | 0.32
18 | COP(=S)(OC)Oc1ccc([N+](=O)[O-])c(C)c1 [FENITROTHION] | 200
19 | CCCN1CCN(Cc2ccc(Cl)nc2)/C1=N/[N+](=O)[O-] | 0.32
20 | N#CC(C#N)=C1NCCN1Cc1ccc(Cl)nc1 | 40
21 | O=C(c1ccccc1)N1CCN(Cc2ccc(Cl)nc2)/C1=N/[N+](=O)[O-] | 0.32
22 | N#CN1CCN(Cc2ccc(Cl)nc2)/C1=N/[N+](=O)[O-] | 0.32
23 | CC(C)N1CCN(Cc2ccc(Cl)nc2)/C1=N/[N+](=O)[O-] | 40
